Measurements as given in patent publication US8512941B2, “Biological material and methods and solutions for preservation thereof” (Core Dynamics Limited, priority 2004, dated 2013).

Key:
[1] = test system: Red blood cells (RBC); experiment: RBC survival (cell count) after freezing/thawing or lyophilizing/rehydrating at 2.5 ml; format: cell-based; conditions: thawed, not lyophilized
Procedure: Red blood cells (RBC) were separated from whole blood received from the Israeli Blood Bank. The blood was centrifuged for 10 minutes at 1500 g and the plasma was discarded. […] Afterwards the supernatant was discarded, and an equal volume of cryopreservation solution selected from the solutions in Table I was added to the packed RBC. Different volumes (2.5-50 ml) of the RBC suspension were transferred to a 16-25 mm diameter glass test tube ([…], Israel). The experiment of freezing 200 ml of RBC suspension was done in a 2000 ml freezing bag (Baxter-Fenwal, USA). Samples were then either frozen and thawed in a water bath at 37° C. or lyophilized and rehydrated with double distilled water (DDW) at 37° C. Glass test tubes containing RBC were frozen in a modified MTG freezing apparatus, as described in WO 03/020874 (manufactured by IMT, Israel). The thermal gradient in the cooling unit was set to 5.5° C./mm or 10.5° C./mm or 15.5° C./mm (as detailed below) with final temperatures of -50° C., -100° C. or -150° C. […] During freezing the test tubes that contained only 2.5 ml samples were rotated at a rate of 56 rpm. Subsequent to freezing, biological material was taken from each test tube to test for cell viability. Lyophilization was performed in a commercial lyophilizer (Labconco, USA) with a condenser temperature of -82° C. for 72 hours. The biological material was is rehydrated by adding DDW to reach the sample's original volume. Frozen (but not lyophilized) material was thawed by immersion in a water bath at 37° C. for until it melted. Melting was observed visually. Cells were counted using the […] 60 cell counter (ABX, France), in accordance with the manufacturer's manual. This device provides a complete cell count (CBC) that includes parameters such as: cell number, hematocrit, mean cell volume, hemoglobin, etc. […] In these experiments the cell suspension volume was 2.5 ml.

[2] = test system: RBC; conditions: introduction of trehalose into fresh RBC, not frozen or freeze-dried; Satpathy et al. 2004; cited from earlier work

## OC[C@H]1O[C@H](O[C@H]2O[C@H](CO)[C@@H](O)[C@H](O)[C@H]2O)[C@H](O)[C@@H](O)[C@@H]1O [Trehalose, reference compound]
[1]; frozen at 1,000° C./min, percentage of total fresh cells counted
  RBC survival, 1A Thawed: 89.04%
[1]; frozen at 2,000° C./min
  RBC survival, 2A Thawed: 93.24%
[2]
  hemolysis: causes significant hemolysis
